The values below come from patent publication EP0371366A1, “Antiviral agents” (priority 1988, dated 1990).

Read-outs that look alike come from different tables or passages of the source. Marks after values point to notes of the source that are not given here.

For data set [1], the system named is Granulocyte-Macrophage Colonies (CFU-GM). Description: CFU-GM assay (myeloid precursors), human hematopoietic cell toxicity. It counts as cell-based. The source says:
(§1) This procedure is a modification of procedures initially described by Diainiak, et al., British Journal of Haematology, 69, 229-304 (1988), or as described by Sommadossi, et al., Agents and Chemotherapy, 31-(3), 452-454 (1987).
(§2) The effect of 4 -azidothymidine and AZT on the formation of erythroid and GM colonies from precursors in human peripheral blood and bone marrow were compared; from which the inhibition of 4 -azidothymidine and AZT against human hematopoietic cells were compared.
In each experiment peripheral blood or bone marrow from a single donor was used. Human peripheral blood mononuclear cells (PBL) were separated from heparinized blood of drug-free donors by density-gradient centrifugation in Ficoll (Pharmacia). Whole blood diluted 1:1 with Hanks' balanced salt solution (HBSS, Gibco) was layered on the top of Ficoll and centrifuged at 400 x g for 30 min. Cells were collected from the interphase and after washing, the concentration was adjusted to 2x10^6 cells/mL in RPMI-1640 medium with 25 mM Hepes buffer (Gibco). Monocytes were removed by adherence to plastic in large Petri dishes (150x15mm), adding 20 ml of the cell suspension/dish, and incubating for 1 hour at 37° C. Nonadherent mononuclear cells (MN) were removed by vigorous washing of the Petri dish with warm (37°C) HBSS.
Bone marrow aspirates from healthy donors were collected in heparizined syringes. The whole mononuclear cell fraction was separated by Ficoll-Paque density-gradient centrifugation (400 x g for 30 min). Cells collected from the interphase were washed 3 times in HBSS and resuspended in culture medium as described below for CFU-GM assay.
MN (1.5x10^6 cells/ml) and BM (1.x10^5 cells/ml) were cultured in complete medium as follows: Dulbecco's Modified Eagle Medium (DMEM, Gibco) supplemented with 20% heat-inactivated fetal calf serum (FCS, Hyclone), 2 mM L-glutamine, 5 x 10-^5 M 2-mercaptoethanol, penicillin (100 U/ml), streptomycin ([…]), and 0.3% bacto-agar (Difco). All supplements were from Gibco, unless otherwise specified. Cells were plated in 35x100 mm Lux Petri dishes (suspension dishes) in triplicate, and incubated at 37°C with 5% CO2 in air at 100% humidity. A supernatant from a T-cell line (GCT, Gibco), containing GM-Colony Stimlating Factor (GM-CSF), was used at a final concentration of 10% in complete medium. Tested compounds were added to the test dishes at concentrations of 10-^9 to 10-^4 M. Cells were incubated in air containing 5% CO2 (100% humidity) at 37°C for 14 days. Colonies were counted under a dissecting microscope. A CFU-GM colony was defined as a cluster of 50 or more cells consisting of granulocytes, monocyte-macrophages, or both.
All tests were performed in triplicate. The 50% inhibitory concentrations (ICso) for all types of colonies were determined using an RS 1 program on an IBM-PC.

For data set [2], the system named is Erythroid Colonies, CFU-E. The experiment in a line: CFU-E assay (late erythroid precursors), human hematopoietic cell toxicity. Format: cell-based.
From the text: as §1, §2
In each experiment peripheral blood or bone marrow from a single donor was used. […]
MN were cultured at a concentration of 3 x 10^5 cells/ml. The culture medium consisted of Iscove's Modified Eagle Medium (Gibco) supplemented with 30% heat-inactiviated FCS (Hyclone), penicillin ([…]), streptomycin ([…]), 2-mercaptoethanol (1 x 10^-4, 1% deionized bovine serum albumin (BSA, Sigma), DEAE-Dextran 40 mg/ml (Pharmacia), 0.8% methylcellulose (4000 Centipose, Fisher), and erythropoietin 2 U/ml (Connaught Laboratories). Cells were plated in 96-well plates ([…]) and incubated at 37^*C with 5% C02 in air (100% humidity) for 7-14 days. CFU-E colonies were counted on Days 7-8. Clusters of 8 or more hemoglobinized cells were considered as a colony. BFU-E colonies were counted on Day 14. Aggregates of 50 or more cells were counted as a colony. […]

Another data set concerns HIV. Conditions: background statement on prior art; cited from earlier work.
The conditions of data set [3]: background statement on prior art; cited from earlier work.
The test system of another data set is HIV (LAV Strain). The experiment in a line: Antiviral activity in HIV-infected A301 (Alex) cells, reverse transcriptase level readout. Format: cell-based. The conditions noted are these: Human immunodeficiency virus 1. Here is the method:
This procedure is a modification of a procedure initially described by Chen et al., Biochemical Pharmacology. 36 (24), 4361-4362 (1987).
(§3) A301 (Alex) cells are pre-infected with a constant amount of HIV (LAV Strain) for three hours at 37° C. Test compounds and AZT (control) are added to the infected cells in two, three or five-fold dilutions, out four places for screening and eight places for confirmation. Unless mentioned the highest concentration is […]. The test plates are incubated in C02 at 37` C for up to twelve days (incubation time depends on virus pool titer) with a partial medium/sample change midpoint through the incubation period. Uninfected A301 cells with sample dilutions, but without virus, are used to evaluate cytotoxicity.
Reverse transcriptase levels are assayed at the end of the incubation period as follows, to determine if antiviral activity is present.
[…] of medium from the HIV infected Alex cells is added to 10 mL of 3.2% Triton X-100. This solution is incubated for 30 minutes at 37° C, then 25 mL of 4X assay mix is added to it. The 4X assay mix contains [^3H]TTP, poly(A).oligo(dT), potassium chloride, magnesium chloride, dithiothreitol, and Tris-HCI buffer, pH8.0. […] The radioactivity remaining on the 3MM paper is quantitated by scintillation counter, and corresponds to reverse transcriptase level.

A short description of data set [4]: Cytotoxicity in uninfected A301 (Alex) cells. It counts as cell-based. Conditions: human, read-out: Cell Toxicity Partial. Here is the method:
as §3

The subject of the next data set is Uninfected A301 cells. The experiment in a line: Cytotoxicity in uninfected A301 (Alex) cells. Format: cell-based. The protocol:
as §3

Data set [5] has as its system Friend leukemia virus complex (FLVC). Format: in vivo, Balb/c mice. The conditions noted are these: daily dose 120 mg/kg i.p. for 9 days. The protocol: This procedure is a modification of a procedure initially described by Jones et al., Journal of Virology, 62 (2), 511-51,8 (1988), or by modifications thereof.
Friend leukemia virus complex (FLVC) was used. This retrovirus complex consists of both helper and defective virus particles.
Six week old female Balb/c mice from Bantin and Kingman, each weighing on the average of 18 gm, received 0.2ml of a solution (comprised of virus diluted in PBS containing 0.002 M EDTA) administered at 20 FFU/mouse, intravenously. Treatments began 4 hours after infection and continued for 9 days. AZT and 4'-azidothymidine were administered at 60 mg/kg/dose twice daily on Days 0, 4, and 5; and on Days 1-3 and 6-8 were administered 3 times daily at 40 mg/kg/dose. 2 3 -Dideoxycytidine was administered at 120 mg/kg/dose twice daily on days 0, 4, and 5; and on days 1-3 and 6-8 was administered 3 times daily at 80 mg/kg/dose. All treatments were given intraperitoneally, 0.5mi/dose. On day 9 after infection the spleens were removed, stained and fixed in Bouin's solution for 2 hours and then weighed. Foci were counted on spleens. A standard t-test was run to compare difference in spleen weights and difference in number of foci-forming units (FFU's) per spleen between groups.

Regarding `Cc1cn([C@H]2C[C@H](O)[C@](CO)(N=[N+]=[N-])O2)c(=O)[nH]c1=O` [Compound 1], the IC50 (commonly the concentration that inhibits the measured activity by half) was 21.1 µM in data set [1] (bone marrow, experiment 1, read-out: IC50 BM 1); 13.6 µM in data set [1] (bone marrow, experiment 2, read-out: IC50 BM 2); 20.7 ± 1.73 µM in data set [1] (peripheral blood mononuclear cells, five separate experiments, read-out: IC50 PBM Mean ±SE); more than 100 µM in data set [2] (PBM (3 experiments)).
With `[N-]=[N+]=N[C@]1(CO)O[C@@H](n2ccc(N)nc2=O)[C@H](O)[C@@H]1O` [4 -azidocytidine], the anti-HIV activity result in the data set with HIV is given as “devoid of anti-HIV activity”. In data set [3], the cytotoxicity result is listed as “cytotoxic”.
As to `Cc1cn([C@H]2C[C@H](N=[N+]=[N-])[C@@H](CO)O2)c(=O)[nH]c1=O` [3'-azidothymidine, reference compound], the EC50 – broadly, the midpoint of the concentration-response curve – in the data set with HIV (LAV Strain) was determined as 0.01 µM. Also, the MCC in data set [4] came out at 825 µM. Also, in the data set on Uninfected A301 cells, the “Cell Toxicity Complete” value was determined as 3300 µM.
`Cc1cn([C@H]2C[C@H](O)[C@](CO)(N=[N+]=[N-])O2)c(=O)[nH]c1=O` [4'-azidothymidine]: the EC50 in the data set on HIV (LAV Strain) (A301 (Alex) cells pre-infected with HIV (LAV Strain), reverse transcriptase levels at end of incubation, read-out: EC50) was 0.01 µM. Besides, the MCC in data set [4] came out at 8 µM. Further, the “Cell Toxicity Complete” value in the data set with Uninfected A301 cells turned out to be 200 µM. The IC50 is 2.01 µM in data set [1] (bone marrow, experiment 1, listed as 2, read-out: IC50 BM 1); 0.9 µM in data set [1] (bone marrow, experiment 2, listed as 2, read-out: IC50 BM 2); 4.83 ± 1.42 µM in data set [1] (peripheral blood mononuclear cells, five separate experiments, listed as 2, read-out: IC50 PBM Mean ±SE); 27 µM in data set [2] (BM (1 experiment)). In addition, the “Inhibition of Splenomegaly” value in data set [5] amounted to 75%. Besides, the FFU/Spleen in data set [5] (Day 9) is reported as not below 26 FFU/Spleen. In addition, the “Spleen Weight” value in data set [5] (weighed on Day 9 after infection) is recorded as 0.190^d gm.
